Assays:
Plasmodium falciparum [1] = experiment: NOVARTIS: Inhibition of Plasmodium falciparum 3D7 (drug-susceptible) proliferation in erythrocyte-based infection assay; type: functional, organism-based; conditions: Plasmodium falciparum, 3D7
Plasmodium falciparum [2] = experiment: NOVARTIS: Inhibition of Plasmodium falciparum W2 (drug-resistant) proliferation in erythrocyte-based infection assay; type: functional, organism-based; conditions: Plasmodium falciparum, W2; read-out: EC50
[3] = NOVARTIS: Cytotoxicity against human hepatocellular carcinoma cell line (Huh7); type: toxicity, cell-based, Huh-7; conditions: Huh7 cells (hepatocellular carcinoma cell line)

| Compound | EC50 (Plasmodium falciparum [1]) [nM] | EC50 (Plasmodium falciparum [2]) [nM] | CC50 [3] [nM] |
| --- | --- | --- | --- |
| COc1ccc2[nH]c3ccccc3c(=O)c2c1 | 4320 | 3140 | > 100000 |
| CC(C)c1ccc(NC(=O)c2ccc(NCCCN(C)Cc3ccccc3)c([N+](=O)[O-])c2)cc1 | 2480 | 3200 | > 100000 |
| CC(C)CN1CCN(c2nc(C#N)c3c(c2C(=S)NC2CCCCC2)CC(C)(C)OC3)CC1 | 370 | 319 | > 10000 |
| C[n+]1ccc(/C=C/c2ccc(Br)cc2)cc1 | 455 | 313 | > 10000 |
| Cc1cccc(-n2c(CNC(=O)c3ccc(S(=O)(=O)N4CCCCC4)cc3)nnc2SCC(=O)Nc2nccs2)c1 | 4200 | 2170 | 67100 |
| C[n+]1ccccc1/C=C/c1ccc(Br)cc1 | 360 | 324 | > 10000 |
| CCN1CCN(Cc2ccc(N(CC)CC)cc2)CC1 | > 12500 | 3080 | > 100000 |
| c1ccc2cc3c(NCCN4CCOCC4)ccnc3cc2c1 | 310 | 313 | > 10000 |
| O=C(NNC(=S)NCc1ccco1)C(F)(F)F | > 12500 | 3170 | > 100000 |
| O=C(Nc1ccon1)c1cc(-c2cccnc2)nc2ccc(Br)cc12 | 1970 | 2510 | > 81000 |
| OC1(C(F)(F)F)CC(c2ccccc2)=NN1c1nncc(-c2ccccc2)n1 (stereo unspecified) | 236 | 314 | > 10000 |
| Cc1ccc(-c2cc(C(F)(F)F)n3nc(C(=O)Nc4cccc(Cl)c4Cl)cc3n2)cc1 | > 1250 | > 321 | > 10000 |
| COc1ccc(-c2csc(Nc3ccc(O)cc3)n2)cc1OC | 2960 | 3210 | > 100000 |
| COCCN1C(=O)c2[nH]nc(-c3ccccc3O)c2C1c1ccc(SC)cc1 (stereo unspecified) | 7390 | 2780 | > 87600 |
| CCOc1cc(C=NN=C(N)N)ccc1OCc1ccccc1 | 235 | 321 | 10100 |
| O=S(=O)(NCCCCNc1ccnc2cc(Cl)ccc12)c1cc(Cl)ccc1Cl | 391 | 338 | > 10700 |
| CCCCC(=O)N(C/C=C/c1ccccc1OC)CCN1CCN(C(=O)NC23CC4CC(CC(C4)C2)C3)CC1 | 1450 | 313 | > 10000 |
| O=C(COc1ccc(Cl)cc1)NCCCCNc1ccnc2cc(Cl)ccc12 | 240 | 303 | > 9740 |
| CCCCc1ccc(C(=O)NCCCCNc2ccnc3cc(Cl)ccc23)cc1 | 221 | 311 | > 10000 |
| Cc1ccc(-c2nnc(Nc3ccc(F)cc3)c3ccccc23)cc1S(=O)(=O)NCC1CCCO1 (stereo unspecified) | 1700 | 3110 | > 100000 |
| CCn1c(SCC(=O)NCCc2ccccc2)nc2sc3c(c2c1=O)CCN(C)C3 | > 4820 | 3100 | > 100000 |
| O=C(NCc1cccnc1)[C@@H]1C[C@H](NC2CCN(CCc3ccccc3)CC2)CN1Cc1ccc(Cl)cc1 | 88.5 | 592 | 18500 |
| Cc1ccc(C(=O)NCCCCNc2ccnc3cc(Cl)ccc23)cc1[N+](=O)[O-] | 222 | 308 | > 10000 |

| Compound | EC50 (Plasmodium falciparum [1]) [nM] | EC50 (Plasmodium falciparum [2]) [nM] | CC50 [3] [nM] |
| --- | --- | --- | --- |
| O=C(Nc1ccc(C2=NCCN2)cc1)c1cc(Cl)c(C(=O)Nc2ccc(C3=NCCN3)cc2)cc1Cl | 66 | 308 | > 10000 |
| CCCCN1Cc2ccc(C(=O)NC(C)C)cc2N=C1c1ccc(F)cc1 | 722 | 325 | > 10000 |
| N=c1c2ccccc2nnn1-c1cccc(C(F)(F)F)c1 | 134 | 308 | > 10000 |
| CCOC(=O)c1c(NC(=O)c2ccc(S(=O)(=O)N(C)c3ccccc3)cc2)sc2c1CCN(C(=O)OCC)C2 | > 10600 | > 3290 | > 100000 |
| CCN(CC)c1ccc(NCc2ccc3c(c2)OCO3)cc1 | 603 | 805 | 24600 |
| c1cc2cc(CN3CCc4nc(N5CCCCC5)sc4C3)ccc2[nH]1 | 410 | 326 | > 10000 |
| Cc1cccc(CC(=O)N2CCC[C@@H]3CN(C(=O)CCc4cccnc4)CC[C@@H]32)c1 | > 1250 | 317 | > 10000 |
| CN(C)c1oc(-c2ccc(Cl)cc2Cl)nc1[P+](c1ccccc1)(c1ccccc1)c1ccccc1 | 230 | 365 | 11600 |
| O=C(Cc1ccccc1)NCCCCNc1ccnc2cc(Cl)ccc12 | 330 | 316 | > 9600 |
| CCCCC(CC)C(=O)N(CCCC(C)Nc1cc(OC)cc2cccnc12)Cc1ccc(OC)c(OC)c1 (stereo unspecified) | 442 | 328 | > 10000 |
| COc1ccc(NC(=O)c2cnn(-c3ccccc3)c2NC(=O)c2ccco2)cc1 | 8000 | 3230 | > 100000 |
| CC(C)(CCl)C(=O)NCCCCNc1ccnc2cc(Cl)ccc12 | 386 | 361 | > 11300 |
| CCCCN1C(=O)NC(c2ccc(NC(=O)c3cccs3)cc2)C(C(=O)OC(C)C)=C1C (stereo unspecified) | 8760 | 3170 | > 100000 |
| COc1ccccc1N1CCN(C(=O)Nc2ccc3ccccc3c2)CC1 | > 1280 | 315 | > 10000 |
| CCCOc1ccc2c(c1)C(=NN=C(N)N)c1cc(OCCC)ccc1-2 | 270 | 323 | > 10000 |
| C=CC1(C)CC23CC(C(OC(=O)c4ccccc4)c4ccnc5ccccc45)N2CCC13 (stereo unspecified) | 176 | 938 | 29200 |
| Cc1cc(Nc2cccc(F)c2)nc(NCc2ccccc2)n1 | 72.2 | 664 | 20800 |
| CCCCCN(C(=O)c1cccc(OC)c1)C(CC)c1nc2ccccc2c(=O)n1-c1ccccc1OC (stereo unspecified) | 614 | 318 | > 10000 |
| COC(=O)c1ccc(C=NNc2cc(C)nc3ccc(OC)cc23)cc1 | 204 | 537 | 16500 |
| Oc1ccc2ccccc2c1CNc1nc2ccccc2[nH]1 | 652 | 450 | 14300 |
| CCOC(=O)c1ccc(-c2c(-c3cc(CC)c(OC)cc3O)noc2C)o1 | 927 | 433 | 13800 |
| COc1ccc(Nc2nc(N3CCCC3)c3ccccc3n2)cc1 | 284 | 334 | 10200 |
| Cc1cccc(NC2=NC(N)=NC(C)(C)N2)c1 | 57.6 | 312 | > 10000 |

| Compound | EC50 (Plasmodium falciparum [1]) [nM] | EC50 (Plasmodium falciparum [2]) [nM] | CC50 [3] [nM] |
| --- | --- | --- | --- |
| COc1cc(NC(C)CCCN(Cc2ccc(OC)c(OC)c2)C(=O)Nc2cccc(Cl)c2Cl)c2ncccc2c1 (stereo unspecified) | 691 | 203 | 6290 |
| O=C(Nc1ccc(C2=NCCN2)cc1)c1ccc(-c2ccc(C(=O)Nc3ccc(C4=NCCN4)cc3)cc2)cc1 | 1320 | 364 | > 11700 |
| CSC1=C(C#N)C(c2ccc(O)cc2)CC(=O)N1 (stereo unspecified) | > 9510 | 3280 | > 100000 |
| Cc1ccc(Cn2c(N3CCC(C(=O)NCc4ccc(F)cc4)CC3)nc3ccccc32)cc1 | > 7510 | 3180 | > 100000 |
| Cc1c(Cc2ccccc2)sc(N=Cc2ccc(Br)s2)c1C(N)=O | 445 | 314 | > 10000 |
| NC(=N[N+](=O)[O-])Nc1ccc(NC(=O)Nc2ccc(Cl)cc2)cc1 | > 900 | 298 | > 9610 |
| CCN1CCN(Cc2cc(=O)oc3cc(-c4ccccc4)c(O)cc23)CC1 | 284 | 385 | 12500 |
| Cc1cccn2c(=O)c3cc(C(=O)NC4CCCC4)c(=N)n(CCc4ccccc4)c3nc12 | 2200 | 3290 | > 100000 |
| O=C(NC1CCN(CC(O)CN(Cc2ccccc2)S(=O)(=O)c2ccccc2)C1)c1ccco1 (stereo unspecified) | 1160 | 319 | > 10000 |
| COc1ccc(NC(=O)c2cc3cc(C4(O)CCN(CC5CC=CCC5)CC4)ccc3o2)cc1 (stereo unspecified) | 381 | 824 | 25100 |
| O=C(OC(C(=O)NCc1ccco1)c1ccc(F)cc1)c1ccco1 (stereo unspecified) | > 1250 | > 327 | > 10000 |
| Cc1cc(C)cc(NC(=S)NNc2ccnc3cc(Cl)ccc23)c1 | 1240 | 2170 | 67700 |
| CC(=O)O[C@@H]1C(=O)[C@@]2(C)[C@H]([C@H](OC(=O)c3ccccc3)[C@@]3(O)C[C@H](OC(=O)[C@H](O)[C@@H](NC(=O)c4ccccc4)c4ccccc4)C(C)=C1C3(C)C)[C@]1(OC(C)=O)CO[C@@H]1C[C@@H]2O | 98.2 | 38.6 | 1210 |
| Cc1ccc(N2C(=O)c3sc4nnc(C)c(=O)n4c3C2=O)cc1 | > 595 | 315 | > 10000 |
| O=C(Nc1cc(Oc2ccc(F)cc2)cc([N+](=O)[O-])c1)c1nc2nc(-c3ccccc3)cc(C(F)(F)F)n2n1 | > 12500 | 3110 | > 100000 |
| CC[C@@H](C(=O)[C@@H](C)C(O)[C@H](C)CCc1ccc(C)c(O)c1C(=O)O)C1O[C@](CC)(C2CC[C@](O)(CC)[C@H](C)O2)C[C@@H]1C (stereo partly specified) | 541 | 315 | > 10000 |
| COc1ccc(OC)c(-c2ccc(O)c(CNCCCN(C)C)c2)c1 | 1260 | 670 | 21400 |
| CCCCCn1c(SCc2ccc(C)cc2)nc2cc(C(=O)NCc3ccco3)ccc2c1=O | > 12500 | 3160 | > 100000 |
| Cn1c(NN=Cc2ccccc2)cc(=O)n(C)c1=O | > 1250 | 325 | > 10000 |
| COc1ccc(NC(=O)c2cc3cc(C4(O)CCN(Cc5cc6ccccc6[nH]5)CC4)ccc3o2)cc1 | 272 | 650 | 20500 |
| COc1cc(NC(=O)Cn2ccc3ccc([N+](=O)[O-])cc32)cc(OC)c1OC | 439 | 319 | > 10000 |

Reference: ChEMBL document CHEMBL1156829 (Proc Natl Acad Sci U S A, 2008)
